The text below walks through data of US8222216B2, “Mesenchymal cell proliferation promoter and skeletal system biomaterial” (Osaka University, priority 2006, dated 2012).

Assay [1] concerns human gingival fibroblasts. Description: Adhesion of human gingival fibroblasts to peptide-coated plate (crystal violet). It is filed as cell-based. As to conditions: plate coated with 0.01 to 100 μg/ml peptide, 30 minutes incubation, P<0.01, n=8, FIG. 10. On the procedure: (§1) An effect that is exerted on adhesive capacity of the mesenchymal cells by the SVVYGLR peptide (SEQ ID NO: 1) was analyzed. The mesenchymal cells used in this example were: human marrow-derived mesenchymal stem cells (human mesenchymal stem cell for study: provided by RIKEN CELL BANK); human gingival fibroblasts (isolated from human gingival and cultured according to a publicly known method); and human periodontal ligament cells (normal human periodontal ligament fibroblast cells: purchased from Sanko Junyaku Co., Ltd).
(§2) A coating plate was produced through the steps of: adding the synthesized SVVYGLR peptide (SEQ ID NO: 1) (0 to 100 μg/ml) to a 96-well microplate for floating cells (ASAHI TECHNO GLASS CORPORATION) for culturing these cells, allowing the microplate to stand for 2 hours at 37 °C, and rinsing the microplate twice in phosphate buffer (PBS: Sigma Pharmaceuticals Ltd). The SVVYGLR peptide (SEQ ID NO: 1) was synthesized with the method described in example 1. […]
(§3) The cells attached to the coating plate were stained with 0.1% crystal violet (Wako Chemicals USA. Inc) […], and then rinsed three times with PBS. Twenty-percent TritonX (Sigma Pharmaceuticals Ltd) was added to each well, and 48 hours later, optical density of each well at a wavelength of […] was measured (reference wavelength […]) by using an optical density spectrometer (BioRad model 680).

The test system of assay [2] is human bone marrow-derived mesenchymal stem cells. Description: Proliferation of human marrow-derived mesenchymal stem cells (WST-1 cell counting). It is filed as cell-based. As to conditions: 10 to 100 ng/ml peptide, day-4 or later, P<0.01, n=6, FIG. 1. As for the experimental part:
(§4) An in vitro experiment was conducted to analyze how the SVVYGLR peptide (SEQ ID NO: 1) affected a proliferating ability of mesenchymal cells present in intercellular substances of bone marrow and dental pulp.
(§5) Purchased human bone marrow-derived mesenchymal stem cells (Cambrex BioScience Inc.) were used as the mesenchymal cells of the intercellular substance of bone marrow. Further, “dental pulp cells”, the mesenchymal cells that constitute a main component of dental pulp tissue, were isolated from a lower incisor of a Sprague-Dawley rat (8-week old male) and cultured based on the method of Nakamura H et al. (J Dent Res. 84: 515-520: 2005), and used for the experiment.
(§6) These cells were seeded into a 96-well cell culture plate at a rate of 5,000 cells/well, and the number of cells under the presence of the SVVYGLR peptide (SEQ ID NO: 1) (0 to 100 ng/ml) was measured by using WST-1 Cell Counting Kit (DOJINDO LABORATORIES). A culture medium was replaced every other day.
Background: Formazan colour is commonly taken as a measure of viable cells.

In assay [3] the test system is human marrow-derived mesenchymal stem cells. In words: Adhesion of human marrow-derived mesenchymal stem cells to peptide-coated plate (crystal violet). The format is cell-based. As to conditions: plate coated with 0.01 to 100 μg/ml peptide, 30 minutes incubation, P<0.01, n=8, FIG. 9. On the procedure: as §1, §2, §3
Assay [4] deals with dental pulp cells. In words: Proliferation of dental pulp cells (WST-1 cell counting). Particulars: 10 to 100 ng/ml peptide, day-10 or later, P<0.01, n=6, FIG. 2. The format is cell-based, Sprague-Dawley rat. As for the experimental part: as §4, §5, §6
The test system of assay [5] is mesenchymal cells isolated from thigh bone marrow. Description: Pellet culture of bone marrow mesenchymal cells (three-dimensional proliferation). The format is cell-based, Sprague-Dawley rat. As to conditions: 100 ng/ml peptide. As for the experimental part: A pellet culture experiment was conducted to analyze how the SVVYGLR peptide (SEQ ID NO: 1) affected the mesenchymal cells when the mesenchymal cells clump together three-dimensionally over a long time.
The mesenchymal cells were isolated from thigh bone marrow of a Sprague-Dawley rat (8-week old male), and cultured in a pellet culture with initial count of 50,000 cells based on the method of Tsutsumi S et al. (Biochem Biophys Res Commun. 288:413-419:2001). The incubation was carried out with a culture medium prepared in such a manner that dexamethasone (100 nM, Sigma-Aldrich), ascorbic acid (50 μg/ml, Sigma-Aldrich), ITS+ premix (100 times diluted, BD Biosciences), and recombinant human transforming growth factor-β1 (10 ng/ml, PeproTech EC) were added to α-MEM (high glucose: Nacalai Tesque, Inc). The SVVYGLR peptide (SEQ ID NO: 1) (100 ng/ml) was added to the culture medium and the pellet was incubated for 26 days. The culture medium was replaced every other day.
The pellet was collected and fixed in phosphate buffered 10% formalin solution for 3 hours at 4° C. After the pellet was washed with PBS (pH7.4), the pellet was soaked in the PBS of a culture plate and photographed under a phase contrast microscope. Planar dimensions of the pellet on a photographed image were measured by using an image analysis software ImageJ ver.1.33u (National Institute of health, USA).

Assay [6] deals with human periodontal ligament cells. In words: Adhesion of human periodontal ligament cells to peptide-coated plate (crystal violet). The format is cell-based. Particulars: plate coated with 0.01 to 100 μg/ml peptide, 30 minutes incubation, P<0.01, n=8, FIG. 11. As for the experimental part:
as §1, §2, §3

No end group written: not given here.

Regarding “SVVYGLR [SVVYGLR peptide, osteopontin-derived peptide of seven amino acids, synthesized by Fmoc solid-phase method]”, the “number of human gingival fibroblasts adhered to coated plate compared to control” value in assay [1] is on record as “significantly increased density-dependently”. Also, the “number of human marrow-derived mesenchymal stem cells compared to control group” value in assay [2] is reported as “significantly increased”. In addition, in assay [3], the “number of human marrow-derived mesenchymal stem cells adhered to coated plate compared to control” value is reported as “significantly increased density-dependently”. For the same substance, the “number of dental pulp cells compared to control group” value in assay [4] is “significantly increased”. Moreover, the “toluidine blue staining of pellet segments (extracellular matrix, acid mucopolysaccharide)” value in assay [5] (26 days pellet culture) is given as “no toluidine blue staining was observed”. For the same substance, in assay [5] (incubated 26 days, three pellets per group, FIG. 4), the “pellet size (planar dimensions) relative to control group” value is given as 1.5 times. In addition, the “number of human periodontal ligament cells adhered to coated plate compared to control” value in assay [6] was “significantly increased density-dependently”.
